Experimental data taken from DBAASP.
Values after ≈ are worked out from the molar mass of the structure shown.

Legend:
Test in all cases: ≥ marks a high value that may be exact or a test limit, other limits are often not marked, values filed in µg/mL are converted to µM
[1] = test system: Streptococcus gordonii ATCC 10558
[2] = test system: Streptococcus gordonii DL1
[3] = test system: Streptococcus mutans ATCC 104495
[4] = test system: Streptococcus mutans ATCC 25175
[5] = test system: Streptococcus mutans T8
[6] = test system: Streptococcus mutans UA140
[7] = test system: Streptococcus mutans UA159
[8] = test system: Streptococcus mutans comD
[9] = test system: Streptococcus salivarius K12
[10] = test system: Streptococcus sanguinis ATCC 10556
[11] = test system: Streptococcus sanguinis NY101
[12] = test system: Bacillus subtilis ATCC 23857
[13] = test system: Candida albicans ATCC 10231
[14] = test system: Escherichia coli ATCC 25922
[15] = test system: Klebsiella aerogenes ATCC 13048
[16] = test system: Pseudomonas aeruginosa ATCC 9027
[17] = test system: Staphylococcus aureus ATCC 29737
[18] = test system: Staphylococcus epidermidis ATCC 12222
[19] = test system: Aspergillus fumigatus KCTC 4165
[20] = test system: Bacillus subtilis KCTC 1918
[21] = test system: Candida albicans TIMM 1768
[22] = test system: Escherichia coli KCTC 1682
[23] = test system: Pseudomonas aeruginosa KCTC 1637
[24] = test system: Salmonella typhimurium KCTC 1926
[25] = test system: Staphylococcus aureus KCTC 1621
[26] = test system: Streptococcus pyogenes KCTC 3096

For `CC(C)C[C@H](NC(=O)[C@H](C)NC(=O)[C@H](CCC(N)=O)NC(=O)[C@@H](NC(=O)[C@H](Cc1ccccc1)NC(=O)[C@H](CO)NC(=O)[C@H](CCCN=C(N)N)NC(=O)[C@H](CC(N)=O)NC(=O)[C@H](Cc1ccccc1)NC(=O)[C@H](CC(C)C)NC(=O)[C@H](CCCN=C(N)N)NC(=O)[C@H](Cc1ccccc1)NC(=O)[C@H](Cc1ccccc1)NC(=O)[C@@H](N)[C@@H](C)O)[C@@H](C)O)C(=O)NCC(=O)N[C@@H](CCCCN)C(=O)O` [TFFRLFNRSFTQALGK], the MIC [1] was at least 64 µM, the MIC [2] was at least 60 µM and the MIC [3] was at least 64 µM. For the same molecule, the MIC [4] was at least 60 µM, the MIC [5] was at least 60 µM and the MIC [6] was at least 64 µM. For the same molecule, the MIC [7] was at least 60 µM, the MIC [8] was at least 60 µM and the MIC [9] was at least 64 µM. The MIC [10] was at least 64 µM and the MIC [11] was at least 60 µM.

`CC(C)C[C@H](NC(=O)[C@H](CC(C)C)NC(=O)[C@H](CCCCN)NC(=O)[C@H](CCCCN)NC(=O)[C@H](CC(C)C)NC(=O)[C@H](CC(C)C)NC(=O)[C@H](CCCCN)NC(=O)[C@H](CCCCN)NC(=O)[C@H](CC(C)C)NC(=O)[C@@H](N)CC(C)C)C(=O)N[C@@H](CCCCN)C(=O)N[C@@H](CCCCN)C(N)=O` [LLKKLLKKLLKK] gave an MIC [12] of 21.4 µM (≈ 31.3 µg/mL), an MIC [13] of 85.3 µM (≈ 125 µg/mL) and an MIC [14] of over 341 µM. The MIC [15] was at least 341 µM, the MIC [16] was 43 µM (≈ 63 µg/mL) and the MIC [17] was at least 341 µM. The MIC [18] was at least 43 µM.

`CC[C@H](C)[C@H](NC(=O)[C@H](CCCCN)NC(=O)[C@H](CCCCN)NC(=O)[C@H](CC(C)C)NC(=O)[C@H](CCCCN)NC(=O)[C@H](CCC(=O)O)NC(=O)CN)C(=O)NCC(=O)N[C@@H](CCC(N)=O)C(=O)N[C@@H](CCCCN)C(=O)N[C@H](C(=O)N[C@@H](CCCCN)C(=O)N[C@@H](CCCCN)C(=O)N[C@@H](Cc1ccccc1)C(=O)N[C@@H](Cc1ccccc1)C(=O)N[C@@H](CCC(N)=O)C(=O)N[C@@H](CCCCN)C(=O)N[C@@H](CC(C)C)C(=O)O)[C@@H](C)CC` [GEKLKKIGQKIKKFFQKL] gave an MIC [19] of 25 µM (≈ 54 µg/mL), an MIC [20] of 25 µM (≈ 54 µg/mL) and an MIC [21] of at least 50 µM. The MIC [22] was 25 µM (≈ 54 µg/mL), the MIC [23] was 6.25 µM (≈ 13.5 µg/mL) and the MIC [24] was 12.5 µM (≈ 27 µg/mL). It also gave an MIC [25] of 25 µM (≈ 54 µg/mL) and an MIC [26] of 25 µM (≈ 54 µg/mL).
